Source: paper PMC3128011, “Central nervous system exposure of next generation quinoline methanols is reduced relative to mefloquine after intravenous dosing in mice” (Malaria Journal, 2011)
In brackets after ≈: the same amount, converted by molar mass. Read-outs that look alike come from different tables or passages of the source.

How the values were obtained:
[1] = Brain and plasma concentrations after IV dosing in mice (LCMS/MS); free brain level from equilibrium dialysis fu; type: in vivo; details: male FVB mice, IV 5 mg/kg; for Maximum whole brain concentration: sampled 5 min, 1, 6, 24 h; for Maximum free brain concentration: whole brain concentration x fu from brain homogenate equilibrium dialysis; for remaining at 24 h: mouse, plasma, 24 h relative to the 5 minute time point, read-out: Residual plasma concentration at 24 h (24h % Remaining)
Method: All in vivo studies were conducted in accordance with protocols approved by the Victorian College of Pharmacy, Animal Ethics Committee. Male, six week old FVB mice were obtained from the Animals Resources Center (Perth, Western Australia) and provided with food and water ad libitum. Mice were administered a 50 μL bolus injection of mefloquine, its enantiomers or one of twenty five quinoline methanol compounds by tail vein injection (dosing solution concentration 2.8 mg/ml) for a nominal dose of 5 mg/kg. The compounds were prepared in 5% DMSO in 5% glucose solution buffered to a pH of 3-5 using citrate or acetate as appropriate based on an assessment of the lipophilicity and pKa of the compound. At 5 min, 1 h, 6 h or 24 h post-dosing, mice were anaesthetized with inhaled isoflurane (3%) approximately 3-4 minutes prior to blood and brain harvest. Blood was collected by cardiac puncture from groups of 2-3 mice and the whole brain was removed. The whole brains were placed into preweighed polypropylene vials and snap frozen prior to storage along with the plasma samples at -20°C until analysis. On the day of analysis, the whole brain was homogenized in three parts of aqueous solution containing 0.1 M EDTA and 0.4 g/L KF (inhibitors of hydrolytic enzymes to reduce the potential for ex vivo tissue-mediated degradation of the test compounds). Calibration standards were prepared by spiking blank brain homogenate and blank plasma with the test compound. Both samples and standards were processed by adding acetonitrile (to precipitate proteins) and centrifuged to separate the supernatant for analysis. An aliquot of the supernatant from each brain homogenate and plasma samples were analysed by UPLC/MS/MS on either a Quattro Premier XE, a Quattro Ultima Pt or a Xevo XT Mass Spectrometer (Waters Corporation, USA).
The unbound fraction of each analog in mouse brain homogenate was determined in vitro using equilibrium dialysis according to methodology reported previously. In brief, a 96 well equilibrium dialysis apparatus was used to determine the unbound fraction in brain homogenate for each compound (HT Dialysis LLC, Gales Ferry, CT). Membranes (12-14 kDA cut-off) were conditioned in deionized water for 60 minutes, followed by conditioning in 80:20 deionized water:ethanol for 20 minutes, and then rinsed in artificial cerebrospinal fluid (CSF) before use. Mouse brain was removed from the freezer and allowed to thaw on the day of experiment. Thawed brain tissue was then homogenized with artificial CSF to a final composition of 1:2 brain:artificial CSF using a Covaris S2 (K Biosciences, Hoddesdon, UK). Diluted brain homogenate was then spiked with the test compound (10 ug/g), and 150 μL aliquots (n = 6 replicate determinations) loaded into the 96-well equilibrium dialysis plate. Dialysis vs artificial CSF (150 μL) was carried out for 5 hours in a temperature controlled incubator at ca. 37°C (Barworld Scientific Ltd, UK) using an orbital microplate shaker at 125 revolutions/minute (Barworld scientific Ltd, UK). At the end of the incubation period, aliquots of brain homogenate or artificial CSF were transferred to micronic tubes (Micronic B.V., the Netherlands) and the composition in each tube balanced with control fluid, such that the volume of artificial CSF to brain was the same. Sample extraction was performed by the addition of 400 μL of acetonitrile containing an appropriate internal standard. Samples were allowed to mix for 1 minute and then centrifuged at 3000 rpm in 96-well blocks for 15 minutes (Allegra X12-R, Beckman Coulter, USA). All samples were then analysed by UPLC/MS/MS on a Quattro Premier XE Mass Spectrometer (Waters Corporation, USA). The unbound fraction in brain was determined as the ratio of the peak area in artificial CSF to that in brain, with correction for dilution factor according to eq.1 [14].(1) [drawing 1] […]

P. falciparum strain W2 = assay: Plasmodium falciparum susceptibility assay (labeled hypoxanthine); type: cell-based; details: for IC90: Plasmodium falciparum; for Potency against P. falciparum in words: in vitro
Method: The in vitro activities of quinoline methanols against P. falciparum strains W2, D6, TM91C235, and TM90C2A were evaluated using the traditional labeled hypoxanthine assay of Desjardins et al as modified by Milhous et al. These four P. falciparum strains were selected since they have various levels of resistance to conventional anti-malarials. W2 is chloroquine resistant and mefloquine sensitive, D6 is chloroquine sensitive but naturally less susceptible to mefloquine, TM91C235 is resistant to mefloquine, chloroquine, and pyrimethamine as is TM90C2A, however this latter parasite is a two pfmdr1 copy strain (pfmdr1 amplification has been associated with clinical mefloquine resistance). Mefloquine is routinely screened in these assays to ensure the validity. Historical values for mefloquine against all the strains are reported elsewhere. The focus of this study was the mefloquine-sensitive strain W2, however values for the other strains for all the compounds are reported in the Supplementary Information.

[2] = Half-life after oral dosing (data not shown); type: in vivo

## O[C@H](c1cc(C(F)(F)F)nc2c(C(F)(F)F)cccc12)[C@@H]1CCCCN1 (single isomer, unassigned) [(+) mefloquine enantiomer, reference compound]
[1]
  Maximum whole brain concentration: 1159 ng/g
  Maximum free brain concentration: 2.5 ng/g

## OC(c1cc(C(F)(F)F)nc2c(C(F)(F)F)cccc12)C1CCCCN1 (single isomer, unassigned; (-)) [(-) mefloquine enantiomer, reference compound]
[1]; 5 mg/kg
  Maximum whole brain concentration: 2249 ng/g
  Maximum free brain concentration: 5.2 ng/g

## OC(c1cc(C(F)(F)F)nc2c(C(F)(F)F)cccc12)C1CCCCN1 (centres unmarked) [Mefloquine, mefloquine]
[1]; listed as MQ, 5 mg/kg
  Maximum whole brain concentration: 1807 ng/g
  Maximum free brain concentration: 4.9 ng/g
[1]
  remaining at 24 h: 35%
P. falciparum strain W2; mefloquine-sensitive W2 strain of P. falciparum, read-out: IC90 W2
  IC90: 0.01 µg/mL (≈ 0.0264 µM)

## CCCCNCC(O)c1cc(C(F)(F)F)nc2c(C(F)(F)F)cccc12 (centres unmarked) [WR177000]
[1]
  Brain concentrations (free and whole) relative to mefloquine, in words: much higher
P. falciparum strain W2
  Potency against P. falciparum in words: most active

## CNCC(O)c1cc(C(F)(F)F)nc2c(C(F)(F)F)cccc12 (centres unmarked) [WR308245]
[1]
  Brain concentrations (free and whole) relative to mefloquine, in words: much higher
P. falciparum strain W2
  Potency against P. falciparum in words: most active

## CN(C)CC(O)c1cc(C(F)(F)F)nc2c(C(F)(F)F)cccc12 (centres unmarked) [WR308246]
[1]
  Brain concentrations (free and whole) relative to mefloquine, in words: much higher
P. falciparum strain W2
  Potency against P. falciparum in words: most active

## CC(C)NCC(O)c1cc(C(F)(F)F)nc2c(C(F)(F)F)cccc12 (centres unmarked) [WR308257]
[1]
  Brain concentrations (free and whole) relative to mefloquine, in words: much higher
P. falciparum strain W2
  Potency against P. falciparum in words: most active

## OC(CN1CCCCC1)c1cc(C(F)(F)F)nc2c(C(F)(F)F)cccc12 (centres unmarked) [WR308265]
[1]
  Brain concentrations (free and whole) relative to mefloquine, in words: much higher
P. falciparum strain W2
  Potency against P. falciparum in words: most active

## CSCCCNCC(O)c1cc(C(F)(F)F)nc2c(C(F)(F)F)cccc12 (centres unmarked) [WR308278]
[1]
  Brain concentrations (free and whole) relative to mefloquine, in words: much higher
P. falciparum strain W2
  Potency against P. falciparum in words: most active

## CCC(C)CNCC(O)c1cc(C(F)(F)F)nc2c(C(F)(F)F)cccc12 (centres unmarked) [WR308387]
[1]
  Brain concentrations (free and whole) relative to mefloquine, in words: much higher
P. falciparum strain W2
  Potency against P. falciparum in words: most active

## OC(CNCCNCc1ccccc1)c1cc(C(F)(F)F)nc2c(C(F)(F)F)cccc12 (centres unmarked) [WR308396]
[1]
  Maximum whole brain concentration: 1768 ng/g
  Maximum free brain concentration: 3.5 ng/g
  remaining at 24 h: 4.6%
P. falciparum strain W2; W2, read-out: IC90 W2
  IC90: 0.006 µg/mL (≈ 0.0131 µM)
P. falciparum strain W2
  Potency against P. falciparum in words: acceptable potency

## COCCNCC(O)c1cc(C(F)(F)F)nc2c(C(F)(F)F)cccc12 (centres unmarked) [WR308412]
[1]
  Brain concentrations (free and whole) relative to mefloquine, in words: much higher
P. falciparum strain W2
  Potency against P. falciparum in words: most active

## OC(CNC1CCNC1)c1cc(C(F)(F)F)nc2c(C(F)(F)F)cccc12 (centres unmarked) [WR308781]
[1]
  Maximum whole brain concentration: 689 ng/g
  Maximum free brain concentration: 5.6 ng/g
  remaining at 24 h: 3.3%
P. falciparum strain W2; W2, read-out: IC90 W2
  IC90: > 0.5 µg/mL

## OC(CNC1CCCNC1)c1cc(C(F)(F)F)nc2c(C(F)(F)F)cccc12 (centres unmarked) [WR318744]
[1]
  Maximum whole brain concentration: 593 ng/g
  Maximum free brain concentration: 3.5 ng/g
  remaining at 24 h: 17%
P. falciparum strain W2; W2, read-out: IC90 W2
  IC90: > 0.5 µg/mL

## CCCCNCCNCC(O)c1cc(C(F)(F)F)nc2c(C(F)(F)F)cccc12 (centres unmarked) [WR318746]
[1]
  Maximum whole brain concentration: 431 ng/g
  Maximum free brain concentration: 3.8 ng/g
  remaining at 24 h: 2.4%
P. falciparum strain W2; W2, read-out: IC90 W2
  IC90: 0.069 µg/mL (≈ 0.163 µM)

## OC(CNCC12CCC(C1)NC2)c1cc(C(F)(F)F)nc2c(C(F)(F)F)cccc12 (centres unmarked) [WR319535]
[1]
  Maximum whole brain concentration: 145 ng/g
  Brain concentrations (free and whole) relative to mefloquine, in words: acceptable
  Maximum free brain concentration: 0.45 ng/g
  remaining at 24 h: 2.7%
[2]
  Half-life relative to mefloquine: longer than mefloquine
P. falciparum strain W2
  Potency against P. falciparum in words: modest potency
